SMILES strings stand for the structures. Counter-ions that a name gives are not always drawn.

By melting point is commonly meant the temperature, or range, at which the solid turns liquid. `c1ccc(-c2c[nH]c([C@@H](NCC3CC3)C3CCCCC3)n2)cc1` (as salt: hydrochloride) [Example 267, (S)-cyclohexyl-N-(cyclopropylmethyl)(4-phenyl-1H-imidazol-2-yl)methanamine] showed a melting point of 151 to 152 °C. Then `CC(C)(C)OC(=O)NCc1nc(-c2ccc(-c3ccccc3)cc2)cn1Cc1ccccc1` [Example 140, 4-(1-benzyl-2-{[(tert-butoxycarbonyl)amino]methyl}-1H-imidazol-4-yl)-1,1′-biphenyl], with 167 to 169 °C.

Consider `Fc1cccc(-c2c[nH]c([C@@H](NC3CCC3)C3CCCCC3)n2)c1` [Example 87, N-{(S)-cyclohexyl[4-(3-fluorophenyl)-1H-imidazol-2-yl]methyl}-cyclobutanamine], for which the melting point fell in the range of 172 to 176 °C.

In turn, `Fc1ccc(-c2c[nH]c([C@@H](NCC3CC3)C3CCCCC3)n2)cc1` (as salt: hydrochloride) [Example 273, (S)-cyclohexyl-N-(cyclopropylmethyl)[4-(4-fluorophenyl)-1H-imidazol-2-yl]-methanamine] yielded a melting point of 221.4 °C. The compound `CCCCCCC(N)c1nc(-c2cccc(OC)c2)c[nH]1` (racemic) (as salt: hydrochloride) [Example 69, (R,S)-1-[4-(3-methoxyphenyl)-1H-imidazol-2-yl]heptylamine] yielded a melting point of 110 to 112 °C. For the compound `O=C(NCCc1nc(-c2ccc(F)cc2)c[nH]1)OCC1CCC1` [Example 286, cyclobutylmethyl 2-[4-(4-fluorophenyl)-1H-imidazol-2-yl]ethylcarbamate], the melting point lay in the range of 149 to 150 °C. `CC(C)(C)COC(=O)NCCc1nc(-c2ccc(-c3ccccc3)cc2)c[nH]1` [Example 203, 4-[2-(2-{[(neopentyloxy)carbonyl]amino}ethyl)-1H-imidazol-4-yl]-1,1′-biphenyl] showed a melting point of 162 to 164 °C. `CNCc1nc(-c2ccccc2)c(-c2ccccc2)[nH]1` (as salt: hydrochloride) [Example 162, (4,5-diphenyl-1H-imidazol-2-yl)-N-methylmethanamine] gave a melting point of 198 to 200 °C. Then `CCCCC(N)c1nc(-c2ccc(-c3ccccc3)cc2)c[nH]1` (racemic) (as salt: hydrochloride) [Example 175, (R,S)-1-(4-[1,1′-biphenyl]-4-yl-1H-imidazol-2-yl)-1-pentanamine], with 197 to 200 °C.

In the case of `CC(C)(N)c1nc(-c2ccccc2)c[nH]1` (as salt: hydrochloride), the melting point was 200 to 204 °C.

Turning to `CC(C)(C)OC(=O)N[C@H](Cc1c[nH]c2ccccc12)c1nc(-c2ccc([N+](=O)[O-])cc2)c[nH]1` [Example 102, tert-butyl (1R)-2-(1H-indol-3-yl)-1-[4-(4-nitrophenyl)-1H-imidazol-2-yl]-ethylcarbamate], the melting point was in the range of 220 to 222 °C. Then `c1ccc(CNCCc2nc(-c3ccc(-c4ccccc4)cc3)c[nH]2)cc1` [Example 164, N-benzyl-2-(4-[1,1′-biphenyl]-4-yl-1H-imidazol-2-yl)ethanamine], with 174 to 176 °C; and `CC(C)CCCC(NC1CCCCC1)c1nc(-c2cccc(Br)c2)c[nH]1` (racemic) (as salt: hydrochloride) [Example 272, (R,S)-N-{1-[4-(3-bromophenyl)-1H-imidazol-2-yl]-5-methylhexyl}-cyclohexanamine], with 216.7 °C. The compound `CC(C)(C)CCOC(=O)NCCc1nc(-c2ccc(-c3ccccc3)cc2)c[nH]1` [Example 383, 3,3-dimethylbutyl 2-[4-(1,1′-biphenyl-4-yl)-1H-imidazol-2-yl]ethylcarbamate] registered a melting point of 98.4 °C. Consider `CCCCOC(=O)N[C@@H](C)c1nc(-c2ccc(-c3ccccc3)cc2)c[nH]1` [Example 241, 4-(2-{(1S)-1-[(butoxycarbonyl)amino]ethyl}-1H-imidazol-4-yl)-1,1′-biphenyl], for which the melting point was 118 to 122 °C. Next, `CCCCCCC(N)c1nc(-c2cccc(Br)c2)c[nH]1` (racemic) (as salt: hydrochloride) [Example 191, (R,S)-1-[4-(3-bromophenyl)-1H-imidazol-2-yl]-1-heptanamine]: 230 to 231 °C.

For `Cn1cc(-c2ccc(-c3ccccc3)cc2)nc1CNC(=O)OC(C)(C)C` [Example 146, 4-(2-{[(tert-butoxycarbonyl)amino]methyl}-1-methyl-1H-imidazol-4-yl)-1,1′-biphenyl], the melting point is 208 to 210 °C. Then `CC[C@H](NC(=O)OC(C)(C)C)c1nc(-c2ccccc2)c(-c2ccccc2)[nH]1` [Example 197, tert-butyl (1S)-1-(4,5-diphenyl-1H-imidazol-2-yl)propylcarbamate], with 136 to 138 °C; and `Fc1ccc(-c2c[nH]c([C@H](NCC3CCCCC3)C3CCCCC3)n2)cc1` (as salt: hydrochloride) [Example 318, (R)-1-cyclohexyl-N-(cyclohexylmethyl)-1-[4-(4-fluorophenyl)-1H-imidazol-2-yl]methanamine], with 188.2 °C. With `c1ccc(CNCc2nc(-c3ccc(-c4ccccc4)cc3)c[nH]2)cc1` (as salt: hydrochloride) [Example 168, N-benzyl(4-[1,1′-biphenyl]4-yl-1H-imidazol-2-yl)methanamine], the melting point was over 250 °C. Then `CCCCOC(=O)NCCc1nc(-c2ccc(N3CCCC3)cc2)c[nH]1` (as salt: hydrochloride) [Example 317, butyl 2-[4-(4-pyrrolidin-1-ylphenyl)-1H-imidazol-2-yl]ethylcarbamate], with 165 to 166 °C; and `O=C(NCCc1nc(-c2ccc(-c3ccccc3)cc2)c[nH]1)OC1CCCC1` [Example 271, 4-[2-(2-{[(cyclopentyloxy)carbonyl]amino}ethyl)-1H-imidazol-4-yl]-1,1′-biphenyl], with 140.5 °C; and `Fc1ccc(-c2c[nH]c([C@@H](NC3CCCCCC3)C3CCCCC3)n2)cc1` [Example 301, N-{(S)-cyclohexyl[4-(4-fluorophenyl)-1H-imidazol-2-yl]methyl}cycloheptanamine], with 140 to 142 °C. The compound `CCCCS(=O)(=O)NCCc1nc(-c2ccc(-c3ccccc3)cc2)c[nH]1` [Example 33, N-[2-(4-[1,1′-biphenyl]-4-yl-1H-imidazol-2-yl)ethyl]-1-butanesulphonamide] gave a melting point of 168.5 °C. Next, `NCCCCCCc1nc(-c2ccccc2)c[nH]1` (as salt: hydrochloride) [Example 180, 6-(4-phenyl-1H-imidazol-2-yl)hexylamine]: 244 to 246 °C; `CC(C)C[C@H](N)c1nc(-c2ccccc2)c[nH]1` (as salt: hydrochloride) [Example 56, (1S)-3-methyl-1-(4-phenyl-1H-imidazol-2-yl)-1-butanamine]: 150 to 152 °C. Then `FC(F)(F)c1ccc(-c2c[nH]c([C@@H](NC3CCCCC3)C3CCCCC3)n2)cc1` (as salt: hydrochloride) [Example 296, N-((S)-cyclohexyl{4-[4-(trifluoromethyl)phenyl]-1H-imidazol-2-yl}methyl)cyclohexanamine], with 214.1 °C.

The compound `CC(C)(C)OC(=O)N[C@@H](Cc1c[nH]c2ccccc12)c1nc(-c2ccccc2)c(-c2ccccc2)[nH]1` [Example 147, tert-butyl (1S)-1-(4,5-diphenyl-1H-imidazol-2-yl)-2-(1H-indol-3-yl)ethylcarbamate] returned a melting point of 142 to 143 °C. Then `Cc1[nH]c(CN(C)C(=O)OC(C)(C)C)nc1-c1ccccc1` [Example 153, tert-butyl methyl[(5-methyl-4-phenyl-1H-imidazol-2-yl)methyl]carbamate], with 70 to 72 °C; and `CCCCC(NC(=O)OC(C)(C)C)c1nc(-c2ccccc2)c[nH]1` (racemic) [Example 174, tert-butyl (R,S)-1-(4-phenyl-1H-imidazol-2-yl)pentylcarbamate], with 126 °C. Next, `c1ccc(CNC(c2ccccc2)c2nc(-c3ccccc3)c[nH]2)cc1` (racemic) [Example 133, (R,S)-N-benzyl(phenyl)(4-phenyl-1H-imidazol-2-yl)methanamine]: 144 to 146 °C. For the compound `NCc1nc(-c2ccccc2)c[nH]1` (as salt: hydrochloride) [Example 51, (4-phenyl-1H-imidazol-2-yl)methanamine], the melting point lay in the range of 228 to 230 °C. In the case of `CCCCCCC(NC1CCCCC1)c1nc(C2CCCCC2)c[nH]1` (centres unmarked) [Example 36, N-[1-(4-cyclohexyl-1H-imidazol-2-yl)heptyl]cyclohexanamine], the melting point is 172 to 174 °C. Then `C#CCN(C)Cc1nc(-c2cc(C(C)(C)C)c(O)c(C(C)(C)C)c2)cs1` [Example 2, 2,6-di(tert-butyl)-4-(2-{[methyl(2-propynyl)amino]methyl}-1,3-thiazol-4-yl)phenol], with 210 to 215 °C; and `c1ccc(OCCN[C@H](Cc2c[nH]c3ccccc23)c2nc(-c3ccccc3)c[nH]2)cc1` [Example 108, (1R)-2-(1H-indol-3-yl)-N-(2-phenoxyethyl)-1-(4-phenyl-1H-imidazol-2-yl)ethanamine], with 94 to 96 °C; and `O=C(NCCc1nc(-c2ccc(N3CCCC3)cc2)c[nH]1)OCCCC(F)(F)F` [Example 385, 4,4,4-trifluorobutyl 2-[4-(4-pyrrolidin-1-ylphenyl)-1H-imidazol-2-yl]ethylcarbamate], with 148.3 °C.

In the case of `CC(C)(C)c1cc(-c2c[nH]c([C@@H](NCC3CCCCC3)C3CCCCC3)n2)cc(C(C)(C)C)c1O` (as salt: hydrochloride) [Example 291, 2,6-ditert-butyl-4-(2-{(S)-cyclohexyl[(cyclohexylmethyl)amino]-methyl}-1H-imidazol-4-yl)phenol], the melting point was determined as 254.6 °C. Next, `CCCCOC(=O)NCCc1nc(-c2ccc(-c3ccccc3OC)cc2)c[nH]1` [Example 458, butyl 2-[4-(2′-methoxy-1,1′-biphenyl-4-yl)-1H-imidazol-2-yl]ethylcarbamate]: 116 to 121 °C.

The record behind these values is patent publication US7291641B2, “Derivatives of heterocycles with 5 members, their preparation and their use as medicaments” (Societe de Conseils de Recherches et d'Applications …, priority 1999, dated 2007).
